Laboratory results from US6586633B1, “Amine derivatives” (Pola Chemical Industries, Inc., priority 2001, dated 2003).
Read-outs that look alike come from different tables or passages of the source.

What was measured:
Assay in all cases: Measurement of antifungal activity (minimum inhibitory concentration), agar dilution
Format in all cases: cell-based
[1] = tested on: T. mentagrophytes TIMM1177; settings: Sabouraud's agar, one week at 27° C.; for MIC: Trichophyton mentagrophytes, 168 h, read-out: MIC value (minimum compound concentration that definitely inhibited any visible growth)
Method: (§1) Measurement of Antifungal Activity (Measurement of Minimum Inhibitory Concentration)
(§2) Antifungal activity of representative compounds of the present invention against dermatophytes was investigated.
(§3) Briefly, strains of dermatophytes to be tested were grown on slant media prepared with Sabouraud's agar (product of Nissuiseiyaku; pepton 1.0%, glucose 4.0%, agar 1.5%, pH 5.9) at 27° C. for two weeks, so as to allow sufficient production of conidiospores. Subsequently, sterilized saline solution containing 0.05% (wt/vol) TWEEN 80 was added thereto, and while the surface of the each medium was scraped with a platinum loop, the conidiospores were deaggregated and suspended in the saline solution. The suspension was filtered through a double face sterilized gauze sheet so as to remove agar and hypha pellets. The filtrate was diluted with a saline solution so as to make the concentration of the conidiospores decrease to 10^6/ml by use of a cytometer, and the resultant dilute filtrate served as a test dermatophytes solution. Meanwhile, a stock solution was prepared by adding 1 ml of dimethylsulfoxide to 10 mg of a compound to be tested. An aliquot (500 μl) of the stock solution was combined with dimethylsulfoxide (500 μl), to thereby prepare a 2-fold dilute solution. Dilution was similarly repeated until 13 different dilute solutions ranging from 10 to 0.0025 mg/ml (concentrations of the ultimate test system: 100-0.025 μg/ml) were obtained. 100 μl each of the diluted solutions of the test compound was dispensed into the sterilized petri dish. A Sabouraud's agar (pepton 1.0%, glucose 4.0%, agar 1.5%, pH 5.9; 10 ml), which had been sterilized and dissolved, was added thereto, and the mixture was thoroughly mixed and solidified. Next, the above-prepared test dermatophytes solution was planted in amounts of 5 μl by use of a microplanter.

T. violaceum TIMM1264 = settings: Sabouraud's agar, one week at 27° C.; for MIC: Trichophyton violaceum, 168 h, read-out: MIC value (minimum compound concentration that definitely inhibited any visible growth)
Method: as §1, §2, §3

T. rubrum IF05808 = settings: Sabouraud's agar, one week at 27° C.; for MIC: Trichophyton rubrum, 168 h, read-out: MIC value (minimum compound concentration that definitely inhibited any visible growth)
Method: as §1, §2, §3

[2] = tested on: T. mentagrophytes IF05811; settings: Sabouraud's agar, one week at 27° C.; for MIC: Trichophyton mentagrophytes, 168 h, read-out: MIC value (minimum compound concentration that definitely inhibited any visible growth)
Method: as §1, §2, §3

[3] = tested on: T. mentagrophytes IF07552; settings: Sabouraud's agar, one week at 27° C.; for MIC: Trichophyton mentagrophytes, 168 h, read-out: MIC value (minimum compound concentration that definitely inhibited any visible growth)
Method: as §1, §2, §3

T. rubrum IF09185 = settings: Sabouraud's agar, one week at 27° C.; for MIC: Trichophyton rubrum, 168 h, read-out: MIC value (minimum compound concentration that definitely inhibited any visible growth)
Method: as §1, §2, §3

M. gypseum IF08231 = settings: Sabouraud's agar, one week at 27° C.; for MIC: Nannizzia gypsea, 168 h, read-out: MIC value (minimum compound concentration that definitely inhibited any visible growth)
Method: as §1, §2, §3

[4] = tested on: T. mentagrophytes TIMM1189; settings: Sabouraud's agar, one week at 27° C.; for MIC: Trichophyton mentagrophytes, 168 h, read-out: MIC value (minimum compound concentration that definitely inhibited any visible growth)
Method: as §1, §2, §3

M. canis TIMM0760 = settings: Sabouraud's agar, one week at 27° C.; for MIC: Microsporum canis, 168 h, read-out: MIC value (minimum compound concentration that definitely inhibited any visible growth)
Method: as §1, §2, §3

Row | SMILES | MIC [1] [µg/mL] | MIC (T. violaceum TIMM1264) [µg/mL] | MIC (T. rubrum IF05808) [µg/mL] | MIC [2] [µg/mL] | MIC [3] [µg/mL] | MIC (T. rubrum IF09185) [µg/mL] | MIC (M. gypseum IF08231; H. gypseum IF08231 (Table 1)) [µg/mL] | MIC [4] [µg/mL] | MIC (M. canis TIMM0760) [µg/mL] | MIC (M. gypseum IF08231; M. gypseum IF08231 (Table 2)) [µg/mL] | MIC value (minimum compound concentration that definitely inhibited any visible growth) [1] [µg/mL] | MIC value (minimum compound concentration that definitely inhibited any visible growth) (T. violaceum TIMM1264) [µg/mL] | MIC value (minimum compound concentration that definitely inhibited any visible growth) (T. rubrum IF05808) [µg/mL] | MIC value (minimum compound concentration that definitely inhibited any visible growth) [2] [µg/mL] | MIC value (minimum compound concentration that definitely inhibited any visible growth) [3] [µg/mL] | MIC value (minimum compound concentration that definitely inhibited any visible growth) (T. rubrum IF09185) [µg/mL] | MIC value (minimum compound concentration that definitely inhibited any visible growth) (M. gypseum IF08231; H. gypseum IF08231 (Table 1)) [µg/mL] | MIC value (minimum compound concentration that definitely inhibited any visible growth) [4] [µg/mL] | MIC value (minimum compound concentration that definitely inhibited any visible growth) (M. canis TIMM0760) [µg/mL]
1 | C/C=C(/C)c1cccc(CN(C)C/C=C/C#CC(C)(C)C)c1.Cl [Compound 27, trans-, cis-N-(6,6-Dimethyl-2-hepten-4-ynyl)-N-methyl-[3-(1-methyl-1-propenyl)benzyl]amine Hydrochloride] | – | – | – | – | – | – | – | – | – | – | 1.56 | 1.56 | 1.56 | 1.56 | 1.56 | 1.56 | 6.25 | 1.56 | 0.78
2 | C=C(C)c1cccc(CN(CC)C/C=C/C#CC(C)(C)C)c1.Cl [Compound 45, trans-N-(6,6-Dimethyl-2-hepten-4-ynyl)-N-ethyl-(3-isopropenylbenzyl)amine Hydrochloride] | 0.39 | 0.39 | 0.39 | 0.39 | 0.39 | 0.39 | 0.39 | 0.39 | 0.2 | – | – | – | – | – | – | – | – | – | –
3 | C=C(CC)c1cccc(CN(C)C/C=C/C#CC(C)(C)C)c1.Cl [Compound 25, trans-N-(6,6-Dimethyl-2-hepten-4-ynyl)-N-methyl-[3-(1-ethylvinyl)benzyl]amine Hydrochloride] | 0.78 | 0.78 | 0.78 | 0.78 | 0.78 | 0.78 | 3.12 | 0.78 | 0.39 | – | – | – | – | – | – | – | – | – | –

Further molecules by falling MIC [1], results first:

Row | MIC [1] [µg/mL] | MIC (T. violaceum TIMM1264) [µg/mL] | MIC (T. rubrum IF05808) [µg/mL] | MIC [2] [µg/mL] | MIC [3] [µg/mL] | MIC (T. rubrum IF09185) [µg/mL] | MIC (M. gypseum IF08231; H. gypseum IF08231 (Table 1)) [µg/mL] | MIC [4] [µg/mL] | MIC (M. canis TIMM0760) [µg/mL] | MIC (M. gypseum IF08231; M. gypseum IF08231 (Table 2)) [µg/mL] | SMILES | MIC value (minimum compound concentration that definitely inhibited any visible growth) [1] [µg/mL] | MIC value (minimum compound concentration that definitely inhibited any visible growth) (T. violaceum TIMM1264) [µg/mL] | MIC value (minimum compound concentration that definitely inhibited any visible growth) (T. rubrum IF05808) [µg/mL] | MIC value (minimum compound concentration that definitely inhibited any visible growth) [2] [µg/mL] | MIC value (minimum compound concentration that definitely inhibited any visible growth) [3] [µg/mL] | MIC value (minimum compound concentration that definitely inhibited any visible growth) (T. rubrum IF09185) [µg/mL] | MIC value (minimum compound concentration that definitely inhibited any visible growth) (M. gypseum IF08231; H. gypseum IF08231 (Table 1)) [µg/mL] | MIC value (minimum compound concentration that definitely inhibited any visible growth) [4] [µg/mL] | MIC value (minimum compound concentration that definitely inhibited any visible growth) (M. canis TIMM0760) [µg/mL]
4 | 6.25 | 12.5 | 3.12 | 6.25 | 6.25 | 3.12 | 12.5 | 6.25 | 6.25 | – | C=C(C)c1ccccc1CN(C)C/C=C/C#CC(C)(C)C.Cl [Compound 39, trans-N-(6,6-Dimethyl-2-hepten-4-ynyl)-N-methyl-(2-isopropenylbenzyl)amine Hydrochloride] | – | – | – | – | – | – | – | – | –
5 | 0.78 | 0.78 | 0.39 | 1.56 | 0.78 | 0.39 | – | 0.78 | 0.2 | 3.12 | C=C(CC)c1cccc(CN(C)Cc2ccc(C(C)(C)C)cc2)c1.Cl [Compound 95, N-(4-tert-Butylbenzyl)-N-methyl-[3-(1-ethylvinyl)benzyl]amine Hydrochloride] | – | – | – | – | – | – | – | – | –
